Assay results as given in patent publication US20110008264A1, “METHOD FOR REPELLING A RODENT, METHOD FOR CAPTURING A RODENT AND RODENT REPELLENT” (Earth Chemical Co., Ltd., priority 2006, published 2011).

Columns and labels:
[1] = tested on: mouse (ddY male mouse); experiment: Inhibition zone formation around impregnated filter paper in rearing cage (Test Example 6); format: in vivo; conditions: 50 μl on filter paper, 16 mice; for Formation rate of inhibition zone: time until inhibition zone is formed
Protocol: A total of 16 animals of a mouse (ddY male mouse of 7 weeks of age) were released in a rearing cage (16 cm in breadth, 23 cm in length and 20 cm in height). Thereafter, a piece of filter paper (1 cm in width and 10 cm in length) impregnated with 50 μl of essential oil shown in the following Table 4 or 50 μl of water was hung down from the center of the ceiling of the rearing cage, and a period of time until a state in which mice gathered in the periphery in the rearing cage but mice are not present around the filter paper (inhibition zone) is formed was measured.

[2] = tested on: rodent (mouse); format: in vivo; conditions: Test Example 1, text; azodicarbonamide at 0.2 g, nitrocellulose at 23 g

SMILES | Presence of inhibition zone [1] | Formation rate of inhibition zone [1] [s] | Repelled rodents in comparison with the control [2]
Cc1ccc(C(C)C)cc1 [p-Cymene] | present | 50 | –
CC1=CCC(C(C)C)=CC1 [γ-Terpinene] | present | 23 | –
CCCCCCOC(C)=O [Hexyl acetate] | present | 24 | –
NC(=O)N=NC(N)=O [azodicarbonamide] | – | – | a distinct difference was observed in comparison with the control
